Laboratory results taken from patent US5202331A, “Therapeutic agent for dysuria comprising alpha-phenyl-alpha-pyridylalkanoic acid derivatives” (Fujisawa Pharmaceutical Co., Ltd., priority 1990, dated 1993).
Converted amounts (≈) assume the structure as drawn.

Columns and labels:
[1] = system: urinary bladder contraction (hyperactive bladder, detrusor hyperreflexia); assay: Inhibition of urinary bladder contraction in the pressure-loaded hyperactive bladder model in rats; assay type: in vivo; conditions: Rattus norvegicus, intravenous, urethane-anesthetized male S.D. rats, hydrostatic pressure about 10 mmHg
Protocol: Male S.D. rats weighing 240-450 g were anesthetized with urethane (1.0 g/kg) s.c.. The urinary bladder was then exposed through a midline incision in the abdomen and the intravesical pressure was recorded. Thus, a balloon attached to one end of a stainless steel tube (1.2 mm in outer diameter, 5 cm in length) was inserted into the bladder through a small incision made in the bladder dome, while the other end of the tube was connected to a pressure transducer. The ureter was ligated and cut and a polyethylene cannula was inserted from the proximal cut end to drain off the urine.
Hyperactive bladder (detrusor hyperreflexia) was induced by water filling of the bladder. A hydrostatic pressure of about 10 mmHg was applied to the balloon in the bladder.
When the contractile response of the bladder to water pressure loading became steady, the test compound was administered intravenously.

[2] = system: voiding reflex bladder contraction; assay: Effect on voiding reflex bladder contraction in rats with the ureter ligated; assay type: in vivo; conditions: Rattus norvegicus, iv, voiding reflex rhythmic bladder contraction, into the jugular vein, urethane-anesthetized male S.D rats
Text: A midline incision was made in the abdomen of male S.D rats (body weight 250-350 g) under urethane (1.0 g/kg i.p.) anesthesia. A small incision was made in the bladder dome and one end of a polyethylene tube was inserted and, then, ligated. To the other end of the polyethylene tube was attached a three-way cock. An infusion pump was connected to one of the joints and a transducer was connected to another joint for measurement of the intravesical pressure. Physiological saline was then infused continuously into the bladder. After confirmation of steady voiding reflexes, the ureter was ligated immediately before the next voiding and the infusion of physiological saline was stopped. After the resulting rhythmic contractions became stable, the test compound was administered into the jugular vein to evaluate its effect.

[3] = system: isolated guinea pig bladder detrusor muscle; assay: Anticholinergic effect in the isolated guinea pig bladder (carbamylcholine-induced contraction); parameters: species or system male guinea pigs; conditions: Cavia porcellus, contractions induced with 10 μM carbamylcholine, Krebs solution
Protocol: Male guinea pigs weighing 400-700 g were fainted and killed by a blow on the occipital region. A bladder detrusor muscle specimen (15-20 mm long × 5 mm thick) was prepared by longitudinal section and suspended in a Magnus bath containing Krebs solution which was aerated with 95% O2 -5% CO2. Isotonic contractions were recorded through a tension transducer. The buffer solution was changed five times at 15-minute intervals. The equilibration time was […]. Contractions were induced with 10 μM carbamylcholine, and after the contractions became steady, the test compound was added to the Magnus bath and its anticholinergic effect was investigated.

[4] = Acute toxicity test; parameters: species or system rats (Crj:CD(SD) strain); conditions: rat, in vivo, 14 days observation, probit method
Protocol: Five rats (Crj:CD(SD) strain) of either sex were used per group. Solutions of the test compound were prepared as shown below and administered to rats intravenously or subcutaneously. The rats were then observed for 14 days. The LD50 values were calculated by the probit method. (Preparation of test solutions)
The test compound was dissolved in hydrochloric acid and the solution was adjusted to pH 6-7 with sodium hydrogen carbonate and diluted with physiological saline to the required concentrations.

## C[C@H](C[C@@](C(N)=O)(c1ccccc1)c1ccccn1)N(C)C (relative stereo) [test compound, (±)-(2R*,4R*)-4-Dimethylamino-2-phenyl-2-(2-pyridyl)-valeramide]
[1]
  ED30: 0.09 mg/kg
[2]
  ED50: 0.56 mg/kg
[3]
  IC50: 0.6 µg/mL (≈ 2.02 µM)
[4]; iv, Female
  LD50 at 336 h: 42.3 mg/kg
[4]; iv, Male
  LD50 at 336 h: 47.2 mg/kg
[4]; sc, Female
  LD50 at 336 h: 915 mg/kg
[4]; sc, Male
  LD50 at 336 h: 922 mg/kg
